In PubChem BioAssay (NCI):
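Where inhibition never reached the appropriate level, the endpoint shown equals the highest concentration tested. Otherwise, values were interpolated linearly from a five-concentration, 48-hour dose response in 96-well plates. GI50 is the concentration that inhibits growth by half. The concentration for full growth arrest is given as TGI.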

Columns and labels:
Assay in all cases: inhibition of tumour cell growth, NCI panel, 48 h
[1] = system: SK-OV-3 ovarian
[2] = system: OVCAR-3 ovarian
[3] = system: SW-620 colon
[4] = system: UACC-62 melanoma
[5] = system: SK-MEL-28 melanoma
[6] = system: SK-MEL-5 melanoma
[7] = system: SF-268 CNS
[8] = system: HT29 colon
[9] = system: MALME-3M melanoma
[10] = system: OVCAR-4 ovarian

Compound | TGI [1] [µM] | TGI [2] [µM] | TGI [3] [µM] | TGI [4] [µM] | TGI [5] [µM] | TGI [6] [µM] | TGI [7] [µM] | TGI [8] [µM] | TGI [9] [µM] | GI50 [1] [µM] | GI50 [2] [nM] | GI50 [4] [nM] | GI50 [5] [nM] | GI50 [7] [nM] | GI50 [8] [µM] | GI50 [10] [µM] | TGI [10] [µM] | GI50 [9] [µM] | GI50 [6] [nM] | GI50 [3] [nM]
C[C@@H]1C[C@H]2CC[C@H](O2)[C@H](C)C(=O)O[C@@H](C)C[C@@H]2CC[C@@H](O2)[C@@H](C)C(=O)O[C@H](C)C[C@H]2CC[C@H](O2)[C@H](C)C(=O)O[C@@H](C)C[C@@H]2CC[C@@H](O2)[C@@H](C)C(=O)O1 | 0.567 | > 40.1 | > 100 | > 61.3 | > 100 | 0.401 | > 51.4 | 15.7 | 2.67 | – | – | – | – | – | – | – | – | – | – | –
COc1ccc(-c2ccc(/C=N/n3c(COc4ccc(Cl)cc4Cl)nn(CN4CCOCC4)c3=S)o2)c([N+](=O)[O-])c1 | 52.1 | 37.9 | – | > 100 | 86.8 | – | > 100 | > 100 | 52.7 | 10.8 | 14600 | 87600 | 27700 | 28600 | 42 | 21.7 | 78.8 | 24.6 | – | –
O=C(CN1CCOCC1)Nc1nc(-c2ccc(Cl)cc2)cs1 | > 100 | 76.9 | > 100 | 53.3 | 74.8 | – | > 100 | > 100 | 65.2 | – | – | – | – | – | – | – | > 100 | – | – | –
CSc1ccc(C2OC(=O)c3ccccc32)c2ccccc12 (centres undefined) | > 100 | – | > 100 | > 100 | > 100 | > 100 | > 100 | > 100 | > 100 | – | – | – | – | – | – | – | > 100 | – | – | –
NC1C[C@H](n2cc(/C=C/Br)c(=O)[nH]c2=O)C[C@@H]1CO (some centres undefined) | > 100 | > 100 | – | > 100 | > 100 | – | > 100 | > 100 | – | – | – | – | – | – | – | – | > 100 | – | – | –
CCCCC(CC)CN=C(N)NC(N)=NCCCCCCN=C(N)NC(N)=NCC(CC)CCCC (centres undefined) | 6.86 | – | – | 4.12 | 5.03 | – | 3.09 | – | – | 2.64 | – | 1840 | 2260 | 1630 | – | 1.9 | 4.85 | – | – | –
Nc1ccn(CCNCCn2cnc3nc(N)[nH]c(=O)c32)c(=O)n1 | – | > 100 | > 100 | – | > 100 | – | > 100 | > 100 | > 100 | – | – | – | – | – | – | – | > 100 | – | – | –
O=C(O)/C=C\C(=O)N1C/C(=C\c2ccccc2Cl)C(=O)/C(=C/c2ccccc2Cl)C1 | 15.2 | 5.51 | – | 3.97 | 9.09 | 12 | 3.54 | – | 18.4 | 4.74 | 2400 | 1880 | 2880 | 1670 | – | 3.37 | 13.6 | 3.96 | 3030 | –
O=C(N/C(=C\c1ccc2c(c1)OCO2)c1nc2ccccc2[nH]1)c1ccccc1 | > 100 | 81.9 | > 100 | 56.9 | 52.1 | 29.9 | > 100 | – | > 89.7 | – | – | – | – | – | – | – | 69.4 | – | – | –
Cc1ccc(-c2cn3ccnc3c(-c3ccc(Cl)cc3)n2)cc1 | > 94 | – | > 61.2 | 35.9 | 44 | 11.4 | 11.7 | 37.4 | – | 0.714 | 41.2 | 137 | 518 | 88.5 | 0.31 | 14.7 | > 100 | – | 62.7 | < 21.7
